From patent US8551516B2, “Administration of non-oral androgenic steroids to women” (Actavis, Inc., priority 1999, dated 2013)

Key:
[1] = biological target: T1, sex hormone binding globulin (SHBG) (Homo sapiens, UniProt P04278); conditions: adapted from Dunn et al. 1981; human plasma; cited from earlier work
T1 sequence (P04278 30-402): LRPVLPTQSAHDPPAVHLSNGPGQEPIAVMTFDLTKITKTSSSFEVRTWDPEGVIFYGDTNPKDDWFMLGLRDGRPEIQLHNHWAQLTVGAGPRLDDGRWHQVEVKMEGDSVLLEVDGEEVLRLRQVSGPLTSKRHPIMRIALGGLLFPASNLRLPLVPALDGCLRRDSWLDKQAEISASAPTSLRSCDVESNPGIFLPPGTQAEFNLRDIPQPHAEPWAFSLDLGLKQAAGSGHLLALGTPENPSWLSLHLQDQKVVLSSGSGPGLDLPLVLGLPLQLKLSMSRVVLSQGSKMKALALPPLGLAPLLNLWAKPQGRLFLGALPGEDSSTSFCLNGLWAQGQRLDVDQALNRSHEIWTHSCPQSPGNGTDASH

SHBG [2] = conditions: known from literature (Bond et al. 1987; Miller et al. 1998); cited from earlier work
SHBG [3] = test: Serum SHBG level prior to patch application in the pharmacokinetic study; type: in vivo, human; conditions: mean±SEM, surgically menopausal women on the estrogen
From the text: The structure and proposed functions of SHBG have been described and characterized. See, for example, Rosner et al., Sex Hormone-Binding Globulin Mediates Steroid Hormone Signal Transduction at the Plasma Membrane, J. Steroid Biochem. Mol. Biol. Vol. 69:481-5 (1999); Petra, P. H. The plasma Sex Steroid Binding Protein (SBP or SHBG). A Critical Review of Recent Developments on the Structure, Molecular Biology, and Function, J. Steroid Biochem. Mol. Biol., Vol. 40:735-53 (1991). A variety of methods have been used to quantify the serum concentrations of SHBG, including ammonium sulfate precipitation, gel filtration, equilibrium dialysis, dextran-coated charcoal, and radioimmunoassay. See, for example, Khan et al., Radioimmunoassay for Human Testosterone-Estradiol-Binding Globulin, J. Clinical Endocrinology and Metabolism, Vol. 54:705-710 (1982). […] Serum SHBG levels are known to be elevated in women treated with oral estrogens, estrogen-containing oral contraceptives, clomiphene, tamoxifen, raloxifene, phenytoin, and sodium valproate, as well as in women who are pregnant, hyperthyroid, have chronic liver disease and HIV-infection. See for example, Bond et al., Sex Hormone Binding Globulin in Clinical Perspective, Acta. Obstet. Gynecol. […]

Structure (SMILES)	K (binding affinity constant for SHBG) [1]	Serum SHBG levels in women treated (SHBG [2])	also measured
CC(=O)[C@@]1(O)CC[C@H]2[C@@H]3CCC4=CC(=O)CC[C@]4(C)[C@H]3CC[C@@]21C [17-hydroxyprogesterone]	9.9 10^6 Liter/mole		
C[C@]12CCC(O)C[C@@H]1CC[C@@H]1[C@@H]2CC[C@]2(C)[C@@H](O)CC[C@@H]12 (some centres unmarked) [androstanediol]	1300 10^6 Liter/mole		
C[C@]12CCC(=O)C=C1CC[C@@H]1[C@@H]2CC[C@]2(C)C(=O)CC[C@@H]12 [androstenedione]	29 10^6 Liter/mole		
C[C@]12CC[C@@H](O)C[C@@H]1CC[C@@H]1[C@@H]2CC[C@]2(C)C(=O)CC[C@@H]12 [androsterone]	14 10^6 Liter/mole		
CCN(CC)CCOc1ccc(C(=C(Cl)c2ccccc2)c2ccccc2)cc1 [clomiphene]		elevated	
C[C@]12CC[C@H](O)CC1=CC[C@@H]1[C@@H]2CC[C@]2(C)C(=O)CC[C@@H]12 [dehydroepiandrosterone]	66 10^6 Liter/mole		
C[C@]12CCC(=O)C[C@@H]1CC[C@@H]1[C@@H]2CC[C@]2(C)[C@@H](O)CC[C@@H]12 [dihydrotestosterone]	5500 10^6 Liter/mole		
C[C@]12CC[C@@H]3c4ccc(O)cc4CC[C@H]3[C@@H]1CC[C@@H]2O [estradiol]			SHBG (SHBG [3]): 90.8 ± 12.9 nmol/L
C[C@]12CC[C@@H]3c4ccc(O)cc4CC[C@H]3[C@@H]1C[C@@H](O)[C@@H]2O [estriol]	4.3 10^6 Liter/mole		
O=C1NC(=O)C(c2ccccc2)(c2ccccc2)N1 [phenytoin]		elevated	
CC(=O)[C@H]1CC[C@H]2[C@@H]3CCC4=CC(=O)CC[C@]4(C)[C@H]3CC[C@]12C [progesterone]	8.8 10^6 Liter/mole		
O=C(c1ccc(OCCN2CCCCC2)cc1)c1c(-c2ccc(O)cc2)sc2cc(O)ccc12 [raloxifene]		elevated	
CCCC(CCC)C(=O)[O-].[Na+] [sodium valproate]		elevated	
CC/C(=C(\c1ccccc1)c1ccc(OCCN(C)C)cc1)c1ccccc1 [tamoxifen]		elevated	
